Tests used:
Rorγt [1] = biological target: T1, Rorγt (Mus musculus, UniProt P51450); test: Rorγt ChIP-qPCR in Th17 cells; type: cell-based; conditions: WT Th17 cells, TGF-β1+IL-6 96h; 10 μM fatty acid added at day 0
T1 construct: expressed in transfected cells; host or cells: EL4 cells stably transfected with Rorγt vector
T1 sequence (P51450 1-495 isoform P51450-2): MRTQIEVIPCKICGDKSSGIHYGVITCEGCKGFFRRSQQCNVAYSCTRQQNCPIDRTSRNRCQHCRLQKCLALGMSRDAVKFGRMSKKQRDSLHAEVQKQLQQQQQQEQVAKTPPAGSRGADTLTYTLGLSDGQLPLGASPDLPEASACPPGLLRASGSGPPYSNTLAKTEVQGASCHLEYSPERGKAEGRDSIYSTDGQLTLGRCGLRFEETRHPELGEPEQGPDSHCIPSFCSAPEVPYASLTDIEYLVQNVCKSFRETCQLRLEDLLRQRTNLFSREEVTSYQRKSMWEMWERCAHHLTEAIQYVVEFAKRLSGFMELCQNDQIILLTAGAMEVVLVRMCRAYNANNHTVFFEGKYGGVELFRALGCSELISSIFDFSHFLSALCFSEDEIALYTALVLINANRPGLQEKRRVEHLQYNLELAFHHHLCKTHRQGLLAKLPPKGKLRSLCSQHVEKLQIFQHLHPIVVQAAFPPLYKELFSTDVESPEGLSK
Procedure: (FIG. 18A, FIG. 18B) Rorγt ChIP-PCR analyses in WT and CD5L−/− Th17 cells. WT, CD5L−/− and Rorγt−/− Th17 cells were differentiated with TGF-1+IL-6 for 96h. Enrichment of Rorγt binding to genomic regions of Il17 (FIG. 18A) and Il10 (FIG. 18B) is measured using qPCR. […] Three independent experiments were performed.

Th17 cells [2] = test: qPCR of gene expression (cyp51, sc4mol, pathogenicity signature) in Th17 cells with exogenous fatty acid; type: cell-based, mouse
Th17 cells [3] = test: Flow cytometry and intracellular cytokine staining of T cells; type: cell-based, mouse
Procedure: WT, CD5L−/− and Rorγt−/− Th17 cells were differentiated with TGF-1+IL-6 for 96h. […] Three independent experiments were performed. […] (FIG. 18E) Naïve WT T cells were activated without polarizing cytokines (Th0) and infected with retrovirus expressing Rorγt in the presence of control-RV or CD5L-RV with or without FF-MAS (5 uM) as a source of Rorγt ligand. Each dot represents an independent infection. (FIG. 18F) WT or CD5L−/− naïve cells were differentiated with TGF-β1+IL-6. At 48h, cells were replated in fresh media with either control or FF-MAS (5 uM) as a source of Rorγt ligand. Cells were harvested for FACS analysis 72h later.
T cell differentiation culture. Naïve CD4+CD44−CD62L+CD25− T cells or Effector memory CD4+CD44+CD62L− were sorted using BD FACSAria sorter and activated with plate-bound anti-CD3 and anti-CD28 antibodies (both at 2 μg/ml) in the presence of cytokines at a concentration of 2.5×10^5 cells/ml. For Th17 differentiation: 2 ng/ml of rhTGFβ1, 2 ng/ml of rhTGFβ3, 25 ng/ml rmIL-6, 20 ng/ml rmIL-18 (all from Miltenyi Biotec) and 20 ng/ml rmIL-23 (R & D systems) were used at various combinations as specified in figures. For Th1 differentiation, 20 ng/ml rmIL-12 (R & D systems); for Th2 differentiation 20 ng/ml rmIL-4 (Miltenyi Biotec); for iTreg differentiation, 2.5 ng/ml of rhTGFβ1 were used (Miltenyi Biotec). For differentiation experiments, cells were harvested at 48 hours. For restimulation experiments, cells were differentiated for 48 hours and resuspended in fresh media with no additional cytokines for 48-72 hours. Cells were re-stimulated with PMA/ionomycin for four hours before analysis for cytokines by intracellular cytokine staining. For experiments with exogenous fatty acid, fatty acids were purchased and resuspended first with serum-free media containing BSA prior being added to culture.
Flow cytometry and intracellular cytokine staining. Sorted naïve T cells were stimulated with phorbol 12-myristate 13-acetate (PMA) (50 ng/ml, Sigma-aldrich), ionomycin (1 μg/ml, Sigma-aldrich) and a protein transport inhibitor containing monensin (Golgistop) (BD Biosciences) for 4 h before detection by staining with antibodies.

[4] = mice fed with a diet rich in PUFA (Monk et al., 2012, 2013); cited from earlier work
Rorγt [5] = biological target: T1, Rorγt; test: Dual luciferase reporter assay of Rorγt transcriptional activity in EL4 cells; type: cell-based; conditions: in the presence of an agonistic Rorγt ligand
Procedure: Cells and supernatant were harvested at 96 hours and subjected to MS/LC. Three independent mouse experiments were performed. […] All ChIP and luciferase assay are representative of at least 3 independent experiments.
Three independent experiments were performed.

[6] = Th17 cells differentiated with TGF-β1+IL-6

With `CCCCC/C=C\C/C=C\C/C=C\C/C=C\CCCC(=O)O` [PUFA, arachidonic acid] the “Rorγt binding at Il17 and Il23r loci (ChIP-PCR)” value (Rorγt [1]) was “decreased such binding”, the “Rorγt binding to the Il10 CNS-9 locus (ChIP-PCR)” value (Rorγt [1]) was “increased Rorγt binding to the Il10 CNS-9 locus” and the “expression of cyp51 and sc4mol mRNA” value (Th17 cells [2]; CD5L−/− Th17 cells (TGF-β1+IL-6), fatty acid 25 uM added at 48h, analyzed at 96h) was “abolished the increased expression of the enzymes”. The “Il22 expression (qPCR)” value (Th17 cells [2]; [6]) was “increased”, the “effector molecule expression of the pathogenicity signature (Il10, Il23r, Ccl5, Csf2, Lag3; qPCR)” value (Th17 cells [2]; [6]) was “reciprocally regulated” and the “percentage of IL-17+CD4+ T cells” value (Th17 cells [3]; CD5L−/− Th17 cells differentiated with TGF-β1+IL-6) was “reduced percentage of IL-17+CD4+ T cells”. For the same compound, the “IL-17 and IL-23R expression” value (Th17 cells [3]; WT Th17 cells differentiated with TGF-β1+IL-6 and expanded using IL-23 with fatty acid) was “suppressed IL-17 and IL-23R expression”, the “severity of chronic colitis and Th17 cell polarization” value [4] was “reduced severity of chronic colitis and Th17 cell polarization” and the Il10 transactivation (Rorγt [5]) was “enhanced Il10 transactivation”. For the same compound, the “Rorγt-mediated Il23r transactivation” value (Rorγt [5]) was “inhibited Rorγt-mediated Il23r transactivation”.
